Numbers after ± are expanded uncertainties.
Settings: 313.15 K; 10000 kPa; Liquid; Falling or rolling sphere viscometry

Row | Structure (SMILES) | viscosity [mPa·s]
1 | CCCC[N+]1(C)CCCC1.O=S(=O)([N-]S(=O)(=O)C(F)(F)F)C(F)(F)F | 46.5 ± 4.8
2 | CCOS(=O)(=O)[O-].CCn1cc[n+](C)c1 [1-ethyl-3-methylimidazolium ethyl sulfate] | 54.3 ± 5.6
3 | COCC[N+]1(C)CCCC1.O=S(=O)([N-]S(=O)(=O)C(F)(F)F)C(F)(F)F | 33.3 ± 3.4

Same assay, conditions: 313.15 K; 15000 kPa; Liquid; Falling or rolling sphere viscometry

Row | Structure (SMILES) | viscosity [mPa·s]
4 | CCCC[N+]1(C)CCCC1.O=S(=O)([N-]S(=O)(=O)C(F)(F)F)C(F)(F)F | 49.5 ± 5.1
5 | CCOS(=O)(=O)[O-].CCn1cc[n+](C)c1 [1-ethyl-3-methylimidazolium ethyl sulfate] | 56.4 ± 5.8
6 | COCC[N+]1(C)CCCC1.O=S(=O)([N-]S(=O)(=O)C(F)(F)F)C(F)(F)F | 35.3 ± 3.6

Same assay, conditions: 313.15 K; 25000 kPa; Liquid; Falling or rolling sphere viscometry

Row | Structure (SMILES) | viscosity [mPa·s]
7 | CCCC[N+]1(C)CCCC1.O=S(=O)([N-]S(=O)(=O)C(F)(F)F)C(F)(F)F | 55.9 ± 5.7
8 | CCOS(=O)(=O)[O-].CCn1cc[n+](C)c1 [1-ethyl-3-methylimidazolium ethyl sulfate] | 60.9 ± 6.3
9 | COCC[N+]1(C)CCCC1.O=S(=O)([N-]S(=O)(=O)C(F)(F)F)C(F)(F)F | 39.5 ± 4

Same assay, conditions: 313.15 K; 50000 kPa; Liquid; Falling or rolling sphere viscometry

Row | Structure (SMILES) | viscosity [mPa·s]
10 | CCCC[N+]1(C)CCCC1.O=S(=O)([N-]S(=O)(=O)C(F)(F)F)C(F)(F)F | 74.8 ± 7.7
11 | CCOS(=O)(=O)[O-].CCn1cc[n+](C)c1 [1-ethyl-3-methylimidazolium ethyl sulfate] | 73.6 ± 7.6
12 | COCC[N+]1(C)CCCC1.O=S(=O)([N-]S(=O)(=O)C(F)(F)F)C(F)(F)F | 52 ± 5.3

Same assay, conditions: 313.15 K; 75000 kPa; Liquid; Falling or rolling sphere viscometry

Row | Structure (SMILES) | viscosity [mPa·s]
13 | CCCC[N+]1(C)CCCC1.O=S(=O)([N-]S(=O)(=O)C(F)(F)F)C(F)(F)F | 98.8 ± 10
14 | CCOS(=O)(=O)[O-].CCn1cc[n+](C)c1 [1-ethyl-3-methylimidazolium ethyl sulfate] | 88.6 ± 9.2
15 | COCC[N+]1(C)CCCC1.O=S(=O)([N-]S(=O)(=O)C(F)(F)F)C(F)(F)F | 67.5 ± 6.9

Same assay, conditions: 313.15 K; 100000 kPa; Liquid; Falling or rolling sphere viscometry

Row | Structure (SMILES) | viscosity [mPa·s]
16 | CCCC[N+]1(C)CCCC1.O=S(=O)([N-]S(=O)(=O)C(F)(F)F)C(F)(F)F | 129.4 ± 14
17 | CCOS(=O)(=O)[O-].CCn1cc[n+](C)c1 [1-ethyl-3-methylimidazolium ethyl sulfate] | 106.6 ± 11
18 | COCC[N+]1(C)CCCC1.O=S(=O)([N-]S(=O)(=O)C(F)(F)F)C(F)(F)F | 86.9 ± 9

Same assay, conditions: 313.15 K; 125000 kPa; Liquid; Falling or rolling sphere viscometry

Row | Structure (SMILES) | viscosity [mPa·s]
19 | CCCC[N+]1(C)CCCC1.O=S(=O)([N-]S(=O)(=O)C(F)(F)F)C(F)(F)F | 168.4 ± 18
20 | CCOS(=O)(=O)[O-].CCn1cc[n+](C)c1 [1-ethyl-3-methylimidazolium ethyl sulfate] | 128.1 ± 14
21 | COCC[N+]1(C)CCCC1.O=S(=O)([N-]S(=O)(=O)C(F)(F)F)C(F)(F)F | 111.2 ± 12

Same assay, conditions: 313.15 K; 150000 kPa; Liquid; Falling or rolling sphere viscometry

Row | Structure (SMILES) | viscosity [mPa·s]
22 | CCCC[N+]1(C)CCCC1.O=S(=O)([N-]S(=O)(=O)C(F)(F)F)C(F)(F)F | 218 ± 24
23 | CCOS(=O)(=O)[O-].CCn1cc[n+](C)c1 [1-ethyl-3-methylimidazolium ethyl sulfate] | 153.8 ± 17
24 | COCC[N+]1(C)CCCC1.O=S(=O)([N-]S(=O)(=O)C(F)(F)F)C(F)(F)F | 141.5 ± 15

Same assay, conditions: 343.15 K; 10000 kPa; Liquid; Falling or rolling sphere viscometry

Row | Structure (SMILES) | viscosity [mPa·s]
25 | CCCC[N+]1(C)CCCC1.O=S(=O)([N-]S(=O)(=O)C(F)(F)F)C(F)(F)F | 18.2 ± 2
26 | CCOS(=O)(=O)[O-].CCn1cc[n+](C)c1 [1-ethyl-3-methylimidazolium ethyl sulfate] | 20.2 ± 2.2
27 | COCC[N+]1(C)CCCC1.O=S(=O)([N-]S(=O)(=O)C(F)(F)F)C(F)(F)F | 14.8 ± 1.6

Same assay, conditions: 343.15 K; 15000 kPa; Liquid; Falling or rolling sphere viscometry

Row | Structure (SMILES) | viscosity [mPa·s]
28 | CCCC[N+]1(C)CCCC1.O=S(=O)([N-]S(=O)(=O)C(F)(F)F)C(F)(F)F | 19.1 ± 2.1
29 | CCOS(=O)(=O)[O-].CCn1cc[n+](C)c1 [1-ethyl-3-methylimidazolium ethyl sulfate] | 20.9 ± 2.3
30 | COCC[N+]1(C)CCCC1.O=S(=O)([N-]S(=O)(=O)C(F)(F)F)C(F)(F)F | 15.5 ± 1.6

Same assay, conditions: 343.15 K; 25000 kPa; Liquid; Falling or rolling sphere viscometry

Row | Structure (SMILES) | viscosity [mPa·s]
31 | CCCC[N+]1(C)CCCC1.O=S(=O)([N-]S(=O)(=O)C(F)(F)F)C(F)(F)F | 21.1 ± 2.3
32 | CCOS(=O)(=O)[O-].CCn1cc[n+](C)c1 [1-ethyl-3-methylimidazolium ethyl sulfate] | 22.3 ± 2.4
33 | COCC[N+]1(C)CCCC1.O=S(=O)([N-]S(=O)(=O)C(F)(F)F)C(F)(F)F | 17 ± 1.8

Same assay, conditions: 343.15 K; 50000 kPa; Liquid; Falling or rolling sphere viscometry

Row | Structure (SMILES) | viscosity [mPa·s]
34 | CCCC[N+]1(C)CCCC1.O=S(=O)([N-]S(=O)(=O)C(F)(F)F)C(F)(F)F | 26.6 ± 2.9
35 | CCOS(=O)(=O)[O-].CCn1cc[n+](C)c1 [1-ethyl-3-methylimidazolium ethyl sulfate] | 26.1 ± 2.9
36 | COCC[N+]1(C)CCCC1.O=S(=O)([N-]S(=O)(=O)C(F)(F)F)C(F)(F)F | 21.2 ± 2.3

Same assay, conditions: 343.15 K; 75000 kPa; Liquid; Falling or rolling sphere viscometry

Row | Structure (SMILES) | viscosity [mPa·s]
37 | CCCC[N+]1(C)CCCC1.O=S(=O)([N-]S(=O)(=O)C(F)(F)F)C(F)(F)F | 33.6 ± 3.7
38 | CCOS(=O)(=O)[O-].CCn1cc[n+](C)c1 [1-ethyl-3-methylimidazolium ethyl sulfate] | 30.3 ± 3.4
39 | COCC[N+]1(C)CCCC1.O=S(=O)([N-]S(=O)(=O)C(F)(F)F)C(F)(F)F | 26.2 ± 2.8

Same assay, conditions: 343.15 K; 100000 kPa; Liquid; Falling or rolling sphere viscometry

Row | Structure (SMILES) | viscosity [mPa·s]
40 | CCCC[N+]1(C)CCCC1.O=S(=O)([N-]S(=O)(=O)C(F)(F)F)C(F)(F)F | 42.1 ± 4.7
41 | CCOS(=O)(=O)[O-].CCn1cc[n+](C)c1 [1-ethyl-3-methylimidazolium ethyl sulfate] | 35 ± 3.9
42 | COCC[N+]1(C)CCCC1.O=S(=O)([N-]S(=O)(=O)C(F)(F)F)C(F)(F)F | 32.3 ± 3.5

Same assay, conditions: 343.15 K; 125000 kPa; Liquid; Falling or rolling sphere viscometry

Row | Structure (SMILES) | viscosity [mPa·s]
43 | CCCC[N+]1(C)CCCC1.O=S(=O)([N-]S(=O)(=O)C(F)(F)F)C(F)(F)F | 52.8 ± 6
44 | CCOS(=O)(=O)[O-].CCn1cc[n+](C)c1 [1-ethyl-3-methylimidazolium ethyl sulfate] | 40.2 ± 4.6
45 | COCC[N+]1(C)CCCC1.O=S(=O)([N-]S(=O)(=O)C(F)(F)F)C(F)(F)F | 39.6 ± 4.4

Same assay, conditions: 343.15 K; 150000 kPa; Liquid; Falling or rolling sphere viscometry

Row | Structure (SMILES) | viscosity [mPa·s]
46 | CCCC[N+]1(C)CCCC1.O=S(=O)([N-]S(=O)(=O)C(F)(F)F)C(F)(F)F | 66.3 ± 7.6
47 | CCOS(=O)(=O)[O-].CCn1cc[n+](C)c1 [1-ethyl-3-methylimidazolium ethyl sulfate] | 46.1 ± 5.3
48 | COCC[N+]1(C)CCCC1.O=S(=O)([N-]S(=O)(=O)C(F)(F)F)C(F)(F)F | 48.5 ± 5.4

Same assay, conditions: 363.15 K; 10000 kPa; Liquid; Falling or rolling sphere viscometry

Row | Structure (SMILES) | viscosity [mPa·s]
49 | CCCC[N+]1(C)CCCC1.O=S(=O)([N-]S(=O)(=O)C(F)(F)F)C(F)(F)F | 12.2 ± 1.3
50 | CCOS(=O)(=O)[O-].CCn1cc[n+](C)c1 [1-ethyl-3-methylimidazolium ethyl sulfate] | 13.2 ± 1.4
51 | COCC[N+]1(C)CCCC1.O=S(=O)([N-]S(=O)(=O)C(F)(F)F)C(F)(F)F | 10.2 ± 1.1

Same assay, conditions: 363.15 K; 15000 kPa; Liquid; Falling or rolling sphere viscometry

Row | Structure (SMILES) | viscosity [mPa·s]
52 | CCCC[N+]1(C)CCCC1.O=S(=O)([N-]S(=O)(=O)C(F)(F)F)C(F)(F)F | 12.8 ± 1.3
53 | CCOS(=O)(=O)[O-].CCn1cc[n+](C)c1 [1-ethyl-3-methylimidazolium ethyl sulfate] | 13.6 ± 1.4
54 | COCC[N+]1(C)CCCC1.O=S(=O)([N-]S(=O)(=O)C(F)(F)F)C(F)(F)F | 10.7 ± 1.1

Same assay, conditions: 363.15 K; 25000 kPa; Liquid; Falling or rolling sphere viscometry

Row | Structure (SMILES) | viscosity [mPa·s]
55 | CCCC[N+]1(C)CCCC1.O=S(=O)([N-]S(=O)(=O)C(F)(F)F)C(F)(F)F | 14.1 ± 1.5
56 | CCOS(=O)(=O)[O-].CCn1cc[n+](C)c1 [1-ethyl-3-methylimidazolium ethyl sulfate] | 14.5 ± 1.5
57 | COCC[N+]1(C)CCCC1.O=S(=O)([N-]S(=O)(=O)C(F)(F)F)C(F)(F)F | 11.6 ± 1.2

Same assay, conditions: 363.15 K; 50000 kPa; Liquid; Falling or rolling sphere viscometry

Row | Structure (SMILES) | viscosity [mPa·s]
58 | CCCC[N+]1(C)CCCC1.O=S(=O)([N-]S(=O)(=O)C(F)(F)F)C(F)(F)F | 17.7 ± 1.8
59 | CCOS(=O)(=O)[O-].CCn1cc[n+](C)c1 [1-ethyl-3-methylimidazolium ethyl sulfate] | 16.8 ± 1.8
60 | COCC[N+]1(C)CCCC1.O=S(=O)([N-]S(=O)(=O)C(F)(F)F)C(F)(F)F | 14.3 ± 1.5

Same assay, conditions: 363.15 K; 75000 kPa; Liquid; Falling or rolling sphere viscometry

Row | Structure (SMILES) | viscosity [mPa·s]
61 | CCCC[N+]1(C)CCCC1.O=S(=O)([N-]S(=O)(=O)C(F)(F)F)C(F)(F)F | 21.9 ± 2.3
62 | CCOS(=O)(=O)[O-].CCn1cc[n+](C)c1 [1-ethyl-3-methylimidazolium ethyl sulfate] | 19.2 ± 2
63 | COCC[N+]1(C)CCCC1.O=S(=O)([N-]S(=O)(=O)C(F)(F)F)C(F)(F)F | 17.5 ± 1.8

Same assay, conditions: 363.15 K; 100000 kPa; Liquid; Falling or rolling sphere viscometry

Row | Structure (SMILES) | viscosity [mPa·s]
64 | CCCC[N+]1(C)CCCC1.O=S(=O)([N-]S(=O)(=O)C(F)(F)F)C(F)(F)F | 26.7 ± 2.8
65 | CCOS(=O)(=O)[O-].CCn1cc[n+](C)c1 [1-ethyl-3-methylimidazolium ethyl sulfate] | 22 ± 2.3
66 | COCC[N+]1(C)CCCC1.O=S(=O)([N-]S(=O)(=O)C(F)(F)F)C(F)(F)F | 21.2 ± 2.2

Same assay, conditions: 363.15 K; 125000 kPa; Liquid; Falling or rolling sphere viscometry

Row | Structure (SMILES) | viscosity [mPa·s]
67 | CCCC[N+]1(C)CCCC1.O=S(=O)([N-]S(=O)(=O)C(F)(F)F)C(F)(F)F | 32.2 ± 3.4
68 | CCOS(=O)(=O)[O-].CCn1cc[n+](C)c1 [1-ethyl-3-methylimidazolium ethyl sulfate] | 25 ± 2.6
69 | COCC[N+]1(C)CCCC1.O=S(=O)([N-]S(=O)(=O)C(F)(F)F)C(F)(F)F | 25.5 ± 2.7

Same assay, conditions: 363.15 K; 150000 kPa; Liquid; Falling or rolling sphere viscometry

Row | Structure (SMILES) | viscosity [mPa·s]
70 | CCCC[N+]1(C)CCCC1.O=S(=O)([N-]S(=O)(=O)C(F)(F)F)C(F)(F)F | 38.7 ± 4.1
71 | CCOS(=O)(=O)[O-].CCn1cc[n+](C)c1 [1-ethyl-3-methylimidazolium ethyl sulfate] | 28.2 ± 3
72 | COCC[N+]1(C)CCCC1.O=S(=O)([N-]S(=O)(=O)C(F)(F)F)C(F)(F)F | 30.5 ± 3.2

Reference: the NIST ThermoML archive (doi:10.1016/j.jct.2012.05.007)
